Key:
Format in all cases: cell-based
[1] = system: AsPC-1 (homozygous mutant KRAS G12D human pancreatic cell line); experiment: KRAS 3D-Cell Proliferation Assay, AsPC-1 (Example 503); conditions: Homo sapiens, ASPC1, 168 h, AsPC-1 3D culture, 7 days, CellTiter-Glo 3D; read-out: Prolif AsPC-1 3D ATP IC50
In short: (§1)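 Cells grown in 3D in ultra-low attachment plates (RPMI-1640 with 10% FBS and 2 mM L-glutamine) received compound dilution series after overnight attachment, at 0.3% DMSO final, for 7 days at 37° C. ATP luminescence (CellTiter-Glo 3D) normalized to DMSO and 1 μM staurosporine; IC50 from 4-parameter Hill fit.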

[2] = system: HPAC (homozygous mutant KRAS G12D human pancreatic cell line); experiment: KRAS 3D-Cell Proliferation Assay, HPAC (Example 503); conditions: Homo sapiens, HPAC, 168 h, HPAC 3D culture, 7 days, CellTiter-Glo 3D; read-out: Prolif HPAC 3D ATP IC50
In short: as §1

[3] = system: PC-9 (KRAS wild type human lung adenocarcinoma cell line); experiment: KRAS 3D-Cell Proliferation Assay, PC-9 (Example 503); conditions: 168 h, PC-9 3D culture, 7 days, CellTiter-Glo 3D, read-out: Prolif PC9 3D ATP IC50
Procedure: Example 503: KRAS 3D-Cell Proliferation Assays. Cellular potencies of compounds are assessed by evaluating inhibition of proliferation in 3D cultures of homozygous mutant KRAS G12D human pancreatic cell lines (AsPC-1 and HPAC) as compared to a KRAS wild type human lung adenocarcinoma cell line (PC-9 and/or H1975). Cells are seeded into 384-well black round-bottom, ultra-low attachment assay plates in 50 uL cell growth medium (RPMI-1640 with 10% fetal bovine serum and 2 mM L-glutamine). After overnight incubation at 37° C. and 5% CO2, compounds solubilized in DMSO are added as dilution series to the wells in a total volume of 150 nL (0.3% DMSO final). The cells are incubated for 7 days at 37° C. and 5% CO2. Cell proliferation is quantitated by addition of 40 uL/well of CellTiter-GloÒ 3D (Promega), and the well contents are mixed 20× at high speed using liquid handling automation workstation (Bravo with 384-well head) and centrifuged at 1500 rpm for 2 minutes to eliminate bubbles. This reagent in combination with mechanical disruption releases the cellular ATP to promote activity in a luciferase-based enzyme/substrate chemiluminescent detection system. After a 30-minute incubation under ambient conditions with shaking and an additional 10 minutes without shaking, the luminescence is read on a plate reader (e.g., EnVision [PerkinElmer]). The results are normalized to percent inhibition based on the following control samples: DMSO (0% inhibition) and 1 μM staurosporine (100% inhibition). The normalized luminescence results are plotted against compound concentration, and the data are fit to a 4-parameter Hill equation to determine the IC50 values.

[4] = system: H1975 (KRAS wild type human lung adenocarcinoma cell line); experiment: KRAS 3D-Cell Proliferation Assay, H1975 (Example 503); conditions: Homo sapiens, NCI-H1975, 168 h, H1975 3D culture, 7 days, CellTiter-Glo 3D; read-out: Prolif H1975 3D ATP IC50
In short: as §1

CCc1cccc2cc(O)cc(-c3nc4c5c(nc(OCC67COC(C6)C7)nc5c3F)N3C[C@H]5CC[C@H](N5)[C@H]3[C@H](C)O4)c12 [Compound 28, 4-((5S,5aS,6S,9R)-12-((2-oxabicyclo[2.1.1]hexan-4-yl)methoxy)-1-fluoro-5-methyl-5a,6,7,8,9,10-hexahydro-5H-4-oxa-3,10a,11,13,14-pentaaza-6,9-methanonaphtho[1,8-ab]heptalen-2-yl)-5-ethylnaphthalen-2-ol]
IC50 [1]: 363 nM | IC50 [2]: 257 nM | IC50 [3]: 11000 nM | IC50 [4]: 20000 nM

C#Cc1c(F)ccc2cc(O)cc(-c3nc4c5c(nc(OC[C@@]67CCCN6C[C@H](F)C7)nc5c3F)N3C[C@H]5CC[C@H](N5)[C@H]3CO4)c12 [Compound 81, 5-Ethynyl-6-fluoro-4-((5aS,6S,9R)-1-fluoro-12-(((2R,7aS)-2-fluorotetrahydro-1H-pyrrolizin-7a(5H)-yl)methoxy)-5a,6,7,8,9,10-hexahydro-5H-4-oxa-3,10a,11,13,14-pentaaza-6,9-methanonaphtho[1,8-ab]heptalen-2-yl)naphthalen-2-ol]
IC50 [1]: 14.7 nM | IC50 [2]: 12.4 nM | IC50 [3]: ≥ 20000 nM | IC50 [4]: 4780 nM

Cc1cc(N)c(F)c(-c2nc3c4c(nc(OC[C@@]56CCCN5C[C@H](F)C6)nc4c2F)N2C[C@H]4CC[C@H](N4)[C@H]2CO3)c1C(F)(F)F [Compound 36, 2-fluoro-3-((5aS,6S,9R)-1-fluoro-12-(((2R,7aS)-2-fluorotetrahydro-1H-pyrrolizin-7a(5H)-yl)methoxy)-5a,6,7,8,9,10-hexahydro-5H-4-oxa-3,10a,11,13,14-pentaaza-6,9-methanonaphtho[1,8-ab]heptalen-2-yl)-5-methyl-4-(trifluoromethyl)aniline]
IC50 [1]: 52.4 nM | IC50 [2]: 31.4 nM | IC50 [3]: 6110 nM | IC50 [4]: 1130 nM

C[C@@H]1Oc2nc(-c3cncc4cccc(Cl)c34)c(F)c3nc(OC[C@@]45CCCN4C[C@H](F)C5)nc(c23)N2C[C@H]3CC[C@H](N3)[C@@H]12 [Compound 38, (5S,5aS,6S,9R)-2-(5-Chloroisoquinolin-4-yl)-1-fluoro-12-(((2R,7aS)-2-fluorotetrahydro-1H-pyrrolizin-7a(5H)-yl)methoxy)-5-methyl-5a,6,7,8,9,10-hexahydro-5H-4-oxa-3,10a,11,13,14-pentaaza-6,9-methanonaphtho[1,8-ab]heptalene]
IC50 [1]: 270 nM | IC50 [2]: 96.1 nM | IC50 [3]: 7380 nM | IC50 [4]: 2830 nM

C#Cc1cccc2cc(O)cc(-c3nc4c5c(nc(OC[C@@]67CCCN6C[C@H](F)C7)nc5c3F)N3C[C@H]5CC[C@H](CN5CCCF)[C@H]3CO4)c12 [Compound 50, 5-Ethynyl-4-((5aS,6R,9R)-1-fluoro-14-(3-fluoropropyl)-12-(((2R,7aS)-2-fluorotetrahydro-1H-pyrrolizin-7a(5H)-yl)methoxy)-5a,6,7,8,9,10-hexahydro-5H-4-oxa-3,10a,11,13,14-pentaaza-6,9-ethanonaphtho[1,8-ab]heptalen-2-yl)naphthalen-2-ol]
IC50 [1]: 13 nM | IC50 [2]: 25.8 nM | IC50 [3]: 4910 nM | IC50 [4]: 455 nM

Cc1c(F)c(N)cc(-c2nc3c4c(nc(OC[C@@H]5CC[C@H]6COCCN65)nc4c2F)N2C[C@H]4CC[C@H](N4)[C@H]2[C@H](C)O3)c1C(F)(F)F [Compound 31, 2-fluoro-5-((5S,5aS,6S,9R)-1-fluoro-12-(((6S,8aS)-hexahydro-1H-pyrrolo[2,1-c][1,4]oxazin-6-yl)methoxy)-5-methyl-5a,6,7,8,9,10-hexahydro-5H-4-oxa-3,10a,11,13,14-pentaaza-6,9-methanonaphtho[1,8-ab]heptalen-2-yl)-3-methyl-4-(trifluoromethyl)aniline]
IC50 [1]: 1.64 nM | IC50 [2]: 0.808 nM | IC50 [3]: 3790 nM | IC50 [4]: 423 nM

Cc1c(F)c(N)cc(-c2nc3c4c(nc(OC[C@@H]5CC(F)(F)CN5C)nc4c2F)N2C[C@H]4CC[C@H](N4)[C@H]2[C@H](C)O3)c1C(F)(F)F [Compound 65, 5-((5S,5aS,6S,9R)-12-(((S)-4,4-Difluoro-1-methylpyrrolidin-2-yl)methoxy)-1-fluoro-5-methyl-5a,6,7,8,9,10-hexahydro-5H-4-oxa-3,10a,11,13,14-pentaaza-6,9-methanonaphtho[1,8-ab]heptalen-2-yl)-2-fluoro-3-methyl-4-(trifluoromethyl)aniline]
IC50 [1]: 64.3 nM | IC50 [2]: 19.6 nM | IC50 [3]: 7530 nM | IC50 [4]: 7960 nM

CCc1cccc2cc(O)cc(-c3nc4c5c(nc(OC[C@@]67CCCN6C[C@H](F)C7)nc5c3F)N3C[C@H]5CC[C@H](N5)[C@H]3[C@H](C)O4)c12 [Compound 10, 5-ethyl-4-((5S,5aS,6S,9R)-1-fluoro-12-(((2R,7aS)-2-fluorotetrahydro-1H-pyrrolizin-7a(5H)-yl)methoxy)-5-methyl-5a,6,7,8,9,10-hexahydro-5H-4-oxa-3,10a,11,13,14-pentaaza-6,9-methanonaphtho[1,8-ab]heptalen-2-yl)naphthalen-2-ol]
IC50 [1]: 4.93 nM | IC50 [2]: 5.96 nM | IC50 [3]: 6670 nM | IC50 [4]: 2270 nM

C[C@@H]1Oc2nc(-c3nc(N)c(F)cc3C(F)(F)F)c(F)c3nc(OC[C@@]45CCCN4CC4(CC4(F)F)C5)nc(c23)N2C[C@H]3CC[C@H](N3)[C@@H]12 (stereo partly drawn) [Compound 86, 6-((5S,5aS,6S,9R)-12-(((7a′S)-2,2-difluorodihydro-1′H,3′H-spiro[cyclopropane-1,2′-pyrrolizin]-7a′(5′H)-yl)methoxy)-1-fluoro-5-methyl-5a,6,7,8,9,10-hexahydro-5H-4-oxa-3,10a,11,13,14-pentaaza[6,9]methanonaphtho[1,8-ab]heptalen-2-yl)-3-fluoro-5-(trifluoromethyl)pyridin-2-amine]
IC50 [1]: 144 nM | IC50 [2]: 126 nM | IC50 [3]: 8750 nM | IC50 [4]: 5430 nM

C#Cc1cccc2cc(O)cc(-c3nc4c5c(ncnc5c3F)N3C[C@H]5CC[C@H](N5)[C@H]3[C@H](C)O4)c12 [Compound 54, 5-ethynyl-4-((5S,5aS,6S,9R)-1-fluoro-5-methyl-5a,6,7,8,9,10-hexahydro-5H-4-oxa-3,10a,11,13,14-pentaaza-6,9-methanonaphtho[1,8-ab]heptalen-2-yl)naphthalen-2-ol]
IC50 [1]: 2090 nM | IC50 [2]: 3420 nM | IC50 [3]: ≥ 20000 nM | IC50 [4]: 20000 nM

C=C1CN2CCC[C@@]2(COc2nc3c4c(nc(-c5cc(O)cc6cccc(CC)c56)c(F)c4n2)O[C@@H](C)[C@@H]2[C@@H]4CC[C@H](CN32)N4)C1 [Compound 80, 5-Ethyl-4-((5S,5aS,6S,9R)-1-fluoro-5-methyl-12-(((S)-2-methylenetetrahydro-1H-pyrrolizin-7a(5H)-yl)methoxy)-5a,6,7,8,9,10-hexahydro-5H-4-oxa-3,10a,11,13,14-pentaaza-6,9-methanonaphtho[1,8-ab]heptalen-2-yl)naphthalen-2-ol]
IC50 [1]: 5.08 nM | IC50 [2]: 2.76 nM | IC50 [3]: 4050 nM | IC50 [4]: 924 nM

C#Cc1cccc2cncc(-c3nc4c5c(nc(OC[C@@]67CCCN6CC6(CC6(F)F)C7)nc5c3F)N3C[C@H]5CC[C@H](N5)[C@H]3[C@H](C)O4)c12 (stereo partly drawn) [Compound 40, (5S,5aS,6S,9R)-12-(((7a′S)-2,2-difluorodihydro-1′H,3′H-spiro[cyclopropane-1,2′-pyrrolizin]-7a′(5′H)-yl)methoxy)-2-(5-ethynylisoquinolin-4-yl)-1-fluoro-5-methyl-5a,6,7,8,9,10-hexahydro-5H-4-oxa-3,10a,11,13,14-pentaaza-6,9-methanonaphtho[1,8-ab]heptalene]
IC50 [1]: 27.7 nM | IC50 [2]: 36 nM | IC50 [3]: 15700 nM | IC50 [4]: 20000 nM

Cc1cc(N)cc(-c2nc3c4c(nc(OC[C@@]56CCCN5C[C@H](F)C6)nc4c2F)N2C[C@H]4CC[C@H](N4)[C@H]2[C@H](C)O3)c1C(F)(F)F [Compound 16, 3-((5S,5aS,6S,9R)-1-fluoro-12-(((2R,7aS)-2-fluorotetrahydro-1H-pyrrolizin-7a(5H)-yl)methoxy)-5-methyl-5a,6,7,8,9,10-hexahydro-5H-4-oxa-3,10a,11,13,14-pentaaza-6,9-methanonaphtho[1,8-ab]heptalen-2-yl)-5-methyl-4-(trifluoromethyl)aniline]
IC50 [1]: 1.3 nM | IC50 [2]: 0.7 nM | IC50 [3]: ≥ 20000 nM | IC50 [4]: 255 nM

Source: patent US12338256B2, “Aza-tetracyclic oxazepine compounds and uses thereof” (Genentech, Inc., priority 2022, dated 2025)
